Patent publication US9951065B2 (Gilead Sciences, Inc., priority 2015, dated 2018)

Biological target: T1, IDO1 (Homo sapiens, UniProt P14902)
T1 construct: HeLa cells were treated with a test compound in the presence of IFNγ, which induces IDO1 expression; host or cells: H1-HeLa cells, IDO1 induced with IFNγ
Test: Cell-based (HeLa) assay for measurement of IDO1 inhibition (kynurenine levels in supernatant after IFNγ induction)
Details: HeLa cells, geometric mean of a minimum of four determinations
Outline: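 HeLa cells, 1,250 per well, treated with compound (0.5% DMSO final) plus IFNγ to induce IDO1, for 48 h. Supernatant kynurenine measured by TCA hydrolysis at 60 °C, then p-dimethylaminobenzaldehyde, absorbance 480 nm. EC50 from a four-parameter fit normalized to −/+IFNγ controls; geometric mean of at least four runs.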

[1] = IFNγ-induced IDO1, kynurenine in supernatant, 48 hour incubation
[2] = IFNγ-induced IDO1, kynurenine in supernatant after 48 hour incubation

T1 sequence (P14902 whole entry): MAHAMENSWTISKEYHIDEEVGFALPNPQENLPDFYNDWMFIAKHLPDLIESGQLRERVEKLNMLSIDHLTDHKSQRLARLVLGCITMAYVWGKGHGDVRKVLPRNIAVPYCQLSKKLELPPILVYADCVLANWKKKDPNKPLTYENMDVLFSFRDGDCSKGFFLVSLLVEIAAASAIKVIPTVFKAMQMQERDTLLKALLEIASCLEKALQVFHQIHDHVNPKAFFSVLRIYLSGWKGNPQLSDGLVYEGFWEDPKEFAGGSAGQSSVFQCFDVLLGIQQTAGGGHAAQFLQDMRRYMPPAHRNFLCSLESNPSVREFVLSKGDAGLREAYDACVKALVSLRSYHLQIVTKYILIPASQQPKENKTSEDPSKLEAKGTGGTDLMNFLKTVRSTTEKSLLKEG

| Compound | EC50 [1] | EC50 [2] |
| --- | --- | --- |
| CCNC(=O)NCCNc1nc2c(F)c(F)cc(/C(=N/O)Nc3ccc(F)c(Cl)c3)c2[nH]1 [Example 341, N-(3-chloro-4-fluorophenyl)-2-((2-(3-ethylureido)ethyl)amino)-4,5-difluoro-N′-hydroxy-1H-benzo[d]imidazole-7-carboximidamide] | > 10000 nM | – |
| CN(C)CCSc1nc2nccc(/C(=N/O)Nc3ccc(F)c(Cl)c3)c2[nH]1 [Example 487, N-(3-chloro-4-fluorophenyl)-2-((2-(dimethylamino)ethyl)thio)-N′-hydroxy-1H-imidazo[4,5-b]pyridine-7-carboximidamide] | 1360 nM | – |
| CN1CCCC(Nc2nc3c(F)c(F)cc(/C(=N/O)Nc4ccc(F)c(Cl)c4)c3[nH]2)C1 (centres unmarked) [Example 443, N-(3-chloro-4-fluorophenyl)-4,5-difluoro-N′-hydroxy-2-((1-methylpiperidin-3-yl)amino)-1H-benzo[d]imidazole-7-carboximidamide] | 389 nM | – |
| CN(C)CC(C)(C)CNc1nc2c(F)c(F)cc(/C(=N/O)Nc3ccc(F)c(Cl)c3)c2[nH]1 [Example 351, N-(3-chloro-4-fluorophenyl)-2-((3-(dimethylamino)-2,2-dimethylpropyl)amino)-4,5-difluoro-N′-hydroxy-1H-benzo[d]imidazole-7-carboximidamide] | 432 nM | – |
| CN(CCc1nc2nccc(/C(=N/O)Nc3ccc(F)c(Cl)c3)c2[nH]1)CC1CCOCC1 [Example 399, N-(3-chloro-4-fluorophenyl)-N′-hydroxy-2-(2-(methyl((tetrahydro-2H-pyran-4-yl)methyl)amino)ethyl)-1H-imidazo[4,5-b]pyridine-7-carboximidamide] | 1330 nM | – |
| NC(=O)CCNc1nc2c(F)c(F)cc(/C(=N/O)Nc3ccc(F)c(Cl)c3)c2[nH]1 [Example 229] | – | > 10000 nM |
| COCCNc1nc2c(F)c(F)cc(/C(=N/O)Nc3ccc(F)c(Cl)c3)c2[nH]1 [Example 40, N-(3-Chloro-4-fluorophenyl)-4,5-difluoro-N′-hydroxy-2-((2-methoxyethyl)amino)-1H-benzo[d]imidazole-7-carboximidamide] | – | 1520 nM |
| CN(C)CCc1nc2c(/C(=N/O)Nc3cccc(Cl)c3)cc(F)c(F)c2[nH]1 [Example 56, N-(3-Chlorophenyl)-2-(2-(dimethylamino)ethyl)-6,7-difluoro-N′-hydroxy-1H-benzo[d]imidazole-4-carboximidamide] | – | 562 nM |
| CC(CNc1nc2c(F)c(F)cc(/C(=N/O)Nc3ccc(F)c(Cl)c3)c2[nH]1)N1CCOCC1 (centres unmarked) [Example 377, N-(3-chloro-4-fluorophenyl)-4,5-difluoro-N′-hydroxy-2-((2-morpholinopropyl)amino)-1H-benzo[d]imidazole-7-carboximidamide] | 838 nM | – |
| O/N=C(\Nc1ccc(F)c(Br)c1)c1ccnc2nc[nH]c12 [Example 81, N-(3-Bromo-4-fluorophenyl)-N′-hydroxy-1H-imidazo[4,5-b]pyridine-7-carboximidamide] | – | 140 nM |
| C#Cc1cc(N/C(=N\O)c2ccnc3nc[nH]c23)ccc1F [Example 97, N-(3-ethynyl-4-fluorophenyl)-N′-hydroxy-1H-imidazo[4,5-b]pyridine-7-carboximidamide] | – | 380 nM |
| CN1CCN(CCNc2nc3c(F)c(F)cc(/C(=N/O)Nc4ccc(F)c(Cl)c4)c3[nH]2)CC1=O [Example 449, N-(3-chloro-4-fluorophenyl)-4,5-difluoro-N′-hydroxy-2-((2-(4-methyl-3-oxopiperazin-1-yl)ethyl)amino)-1H-benzo[d]imidazole-7-carboximidamide] | 6250 nM | – |
| O/N=C(\Nc1ccc(F)c(Cl)c1)c1ccnc2nc(NCCCN3CCOCC3)[nH]c12 [Example 221, N-(3-chloro-4-fluorophenyl)-N′-hydroxy-2-((3-morpholinopropyl)amino)-1H-imidazo[4,5-b]pyridine-7-carboximidamide] | – | 899 nM |
| O/N=C(\Nc1ccc(F)c(Cl)c1)c1cc(F)cc2nc(NCCN3CCCC3)[nH]c12 [Example 380, N-(3-chloro-4-fluorophenyl)-5-fluoro-N′-hydroxy-2-((2-(pyrrolidin-1-yl)ethyl)amino)-1H-benzo[d]imidazole-7-carboximidamide] | 1390 nM | – |
| O/N=C(\Nc1ccc2occc2c1)c1ccnc2nc[nH]c12 [Example 70, N-(benzofuran-5-yl)-N′-hydroxy-1H-imidazo[4,5-b]pyridine-7-carboximidamide] | – | 1480 nM |
| COCCN(C)CCc1nc2nccc(/C(=N/O)Nc3ccc(F)c(Cl)c3)c2[nH]1 [Example 194, N-(3-Chloro-4-fluorophenyl)-N′-hydroxy-2-(2-((2-methoxyethyl)(methyl)amino)ethyl)-1H-imidazo[4,5-b]pyridine-7-carboximidamide] | – | 504 nM |

| Compound | EC50 [1] | EC50 [2] |
| --- | --- | --- |
| CN1CCCCC1CNc1nc2nccc(/C(=N/O)Nc3ccc(F)c(Cl)c3)c2[nH]1 (centres unmarked) [Example 202, N-(3-Chloro-4-fluorophenyl)-N′-hydroxy-2-[(1-methylpiperidin-2-yl)methylamino]-1H-imidazo[4,5-b]pyridine-7-carboximidamide] | – | 2090 nM |
| CC(C)(O)CNc1nc2c(F)c(F)cc(/C(=N/O)Nc3ccc(F)c(Cl)c3)c2[nH]1 [Example 292, N-(3-chloro-4-fluorophenyl)-4,5-difluoro-N′-hydroxy-2-((2-hydroxy-2-methylpropyl)amino)-1H-benzo[d]imidazole-7-carboximidamide] | – | 3320 nM |
| O/N=C(\Nc1ccc(F)c(C(F)(F)F)c1)c1ccnc2nc[nH]c12 [Example 83, N-(4-Fluoro-3-(trifluoromethyl)phenyl)-N′-hydroxy-1H-imidazo[4,5-b]pyridine-7-carboximidamide] | – | 315 nM |
| CN1CCC[C@H](Nc2nc3c(F)c(F)cc(/C(=N/O)Nc4cccc(Cl)c4)c3[nH]2)C1 [Example 459, (S)—N-(3-chlorophenyl)-4,5-difluoro-N′-hydroxy-2-((1-methylpiperidin-3-yl)amino)-1H-benzo[d]imidazole-7-carboximidamide] | 337 nM | – |
| CC(C)N1CCCC(Nc2nc3c(F)c(F)cc(C(=NO)Nc4ccc(F)c(Cl)c4)c3[nH]2)C1 (centres unmarked) [Example 455, N-(3-chloro-4-fluorophenyl)-4,5-difluoro-N′-hydroxy-2-((1-isopropylpiperidin-3-yl)amino)-1H-benzo[d]imidazole-7-carboximidamide] | 376 nM | – |
| CN(C)CCNc1nc2c(F)c(F)cc(/C(=N/O)Nc3cccc(Br)c3)c2[nH]1 [Example 430, N-(3-bromophenyl)-2-((2-(dimethylamino)ethyl)amino)-4,5-difluoro-N′-hydroxy-1H-benzo[d]imidazole-7-carboximidamide] | 180 nM | – |
| O/N=C(\Nc1ccc(F)c(Cl)c1)c1ccnc2nc(NCCc3ccccc3)[nH]c12 [Example 156, N-(3-Chloro-4-fluorophenyl)-N′-hydroxy-2-(phenethylamino)-1H-imidazo[4,5-b]pyridine-7-carboximidamide] | – | 769 nM |
| CN(C)CCCNc1nc2c(F)c(F)cc(/C(=N/O)Nc3cccc(Br)c3)c2[nH]1 [Example 386, N-(3-bromophenyl)-2-((3-(dimethylamino)propyl)amino)-4,5-difluoro-N′-hydroxy-1H-benzo[d]imidazole-7-carboximidamide] | 559 nM | – |
| CC(C)(O)Cc1nc2c(F)c(F)cc(/C(=N/O)Nc3ccc(F)c(Cl)c3)c2[nH]1 [Example 302, N-(3-chloro-4-fluorophenyl)-4,5-difluoro-N′-hydroxy-2-(2-hydroxy-2-methylpropyl)-1H-benzo[d]imidazole-7-carboximidamide] | > 10000 nM | – |
| CCC(CC)CN(C)CCNc1nc2c(F)c(F)cc(/C(=N/O)Nc3ccc(F)c(Cl)c3)c2[nH]1 [Example 397, N-(3-chloro-4-fluorophenyl)-2-((2-((2-ethylbutyl)(methyl)amino)ethyl)amino)-4,5-difluoro-N′-hydroxy-1H-benzo[d]imidazole-7-carboximidamide] | 1320 nM | – |
| CN1CC[C@@H](Nc2nc3c(F)c(F)cc(/C(=N/O)Nc4ccc(F)c(Cl)c4)c3[nH]2)C1 [Example 457, (R)—N-(3-chloro-4-fluorophenyl)-4,5-difluoro-N′-hydroxy-2-((1-methylpyrrolidin-3-yl)amino)-1H-benzo[d]imidazole-7-carboximidamide] | 271 nM | – |
| CN(C(=NO)c1ccnc2nc[nH]c12)c1ccc(F)c(Cl)c1 [Example 369, N-(3-chloro-4-fluorophenyl)-N′-hydroxy-N-methyl-1H-imidazo[4,5-b]pyridine-7-carboximidamide] | > 10000 nM | – |
| O/N=C(\Nc1ccc(F)c(Cl)c1)c1ccnc2nc(C(O)C(F)(F)F)[nH]c12 (centres unmarked) [Example 176, N-(3-Chloro-4-fluorophenyl)-N′-hydroxy-2-(2,2,2-trifluoro-1-hydroxyethyl)-1H-imidazo[4,5-b]pyridine-7-carboximidamide] | – | 4200 nM |
| O/N=C(\Nc1ccc(F)c(Cl)c1)c1ccc(C(F)(F)F)c2nc[nH]c12 [Example 7, N-(3-Chloro-4-fluorophenyl)-N′-hydroxy-4-(trifluoromethyl)-1H-benzo[d]imidazole-7-carboximidamide] | – | 926 nM |
| CN(C)CCSc1nc2c(F)c(F)cc(/C(=N/O)Nc3ccc(F)c(Cl)c3)c2[nH]1 [Example 488, N-(3-chloro-4-fluorophenyl)-2-((2-(dimethylamino)ethyl)thio)-4,5-difluoro-N′-hydroxy-1H-benzo[d]imidazole-7-carboximidamide] | 3010 nM | – |
| CCN(CCNc1nc2nccc(/C(=N/O)Nc3ccc(F)c(Cl)c3)c2[nH]1)C1CC1 [Example 403, N-(3-chloro-4-fluorophenyl)-2-((2-(cyclopropyl(ethyl)amino)ethyl)amino)-N′-hydroxy-1H-imidazo[4,5-b]pyridine-7-carboximidamide] | 192 nM | – |
